Test results reported in patent US4100346A, “Certain 7(o-amino-methyl- or methylaminomethylphenyl- or cyclohexadienyl- or thienylacetamide)-3[1-carboxymethyl-(or ethyl- or propyl-)-tetrazol-5-ylthiomethyl]-3-cephem-4-carboxylic acids” (Bristol-Myers Company, priority 1976, dated 1978).
Read-outs that look alike come from different tables or passages of the source.

Assays:
Klebsiella pneumoniae [1] = assay: Effect of inoculum size on susceptibility of Enterobacteriaceae
Bacteroides Fragilis = assay: Growth inhibitory activity, antibiotic dilution technique (obligate anaerobes); type: cell-based; settings: 3 strains, geometric mean when applicable, read-out: Minimum inhibitory concentration
Description: Antibiotic spectrum. […] Procedures were as follows:
c. Obligate anaerobes. The assay was performed on solid medium, consisting of Brain Heart Infusion Broth (BBL) supplemented with 5% defibrinated sheep blood and 1% Ionagar (Colab). […] The plates were incubated at 37° C. for 48 hours under the oxygen-free conditions attained with a Gas-Pak (BBL) Brewer jar system.

Enterobacter cloacae [2] = assay: Effect of inoculum size on susceptibility of Enterobacteriaceae
Enterobacter aerogenes = assay: as above; settings: Klebsiella aerogenes, read-out: Minimum Inhibitory Concentration, Enterobacter aerogenes strain 1
Escherichia coli = assay: as above
Haemophilus influenzae = assay: Growth inhibitory activity, antibiotic dilution technique; settings: including 9 ampicillin-resistant strains
[3] = system: Bordetella bronchiseptica; assay: as above; settings: read-out: Minimum inhibitory concentration
Enterobacter cloacae [4] = assay: Intramuscular treatment of systemically infected mice; type: in vivo; settings: mice, intramuscular; compared with control cephalosporins
Source text: Treatment of Systemically Infected Mice. The procedures were identical with those published previously [Leitner et al., BL-S640, a Cephalosporin With a Broad Spectrum of Antibacterial Activity: Bioavailability and Therapeutic Properties in Rodents, Antimicrob. Agents Chemother.
(a) the hog gastric mucin used in infections with Staphylococcus aureus No. 2 was purchased from American Laboratories, Inc., Omaha, Neb.

Proteus vulgaris = assay: Minimum growth inhibitory and bactericidal concentrations for Enterobacteriaceae; type: cell-based; settings: inoculum 10^4 cells; for MIC: read-out: MIC, Minimum growth inhibitory concentration; for MBC: read-out: MBC, minimum bactericidal concentration
Source text: (§1) Miscellaneous. Methods for determining bactericidal activity and susceptibility to cell-free β-lactamase were those previously used; Leitner et al., BL-S640, A Cephalosporin With a Broad Spectrum of Antibacterial Activity: Properties in vitro, Antimicrob. Agents Chemother. 7:298-305 (1975).
(§2) *MIC, Minimum growth inhibitory concentration; MBC, minimum bactericidal
(§3) concentration; expressed as micrograms per milliliter. The inoculum was […]

Proteus mirabilis [5] = assay: as above; type: cell-based; settings: for MBC: read-out: MBC, minimum bactericidal concentration; for MIC: read-out: MIC, Minimum growth inhibitory concentration
Source text: as §1, §2, §3

Klebsiella pneumoniae [6] = assay: as above; type: cell-based; settings: for MBC: read-out: MBC, minimum bactericidal concentration; for MIC: read-out: MIC, Minimum growth inhibitory concentration
Source text: as §1, §2, §3

[7] = Recovery in urine after intramuscular injection; settings: rat, im, 10 mg/kg
Proteus mirabilis [8] = assay: Effect of inoculum size on susceptibility of Enterobacteriaceae
Pasteurella multocida = assay: Growth inhibitory activity, antibiotic dilution technique; settings: read-out: Minimum inhibitory concentration
Edwardsiella tarda = assay: as above; settings: read-out: Minimum inhibitory concentration
Staphylococcus Aureus = assay: Effect of inoculum size on susceptibility of Staphylococcus aureus; type: cell-based; settings: for MICB /MICA: MIC at 10^6 over MIC at 10^2 organisms; for MIC: Staphylococcus aureus, read-out: Minimum inhibitory concentration
[9] = Proteus vulgaris, Proteus vulgaris strain 2
[10] = Proteus vulgaris, Proteus vulgaris strain 4
[11] = Proteus mirabilis strain 1, inoculum 10^4 cells
[12] = Proteus mirabilis strain 2, inoculum 10^4 cells
[13] = Proteus mirabilis strain 3, inoculum 10^4 cells
[14] = Proteus mirabilis strain 4, inoculum 10^4 cells
[15] = Proteus mirabilis strain 5, inoculum 10^4 cells
[16] = Klebsiella pneumoniae strain 1, inoculum 10^4 cells
[17] = Klebsiella pneumoniae strain 2, inoculum 10^4 cells
[18] = Klebsiella pneumoniae strain 3, inoculum 10^4 cells
[19] = Klebsiella pneumoniae strain 4, inoculum 10^4 cells
[20] = Klebsiella pneumoniae strain 5, inoculum 10^4 cells
[21] = Klebsiella pneumoniae strain 6, inoculum 10^4 cells

NCc1ccccc1CC(=O)N[C@@H]1C(=O)N2C(C(=O)O)=C(CSc3nnnn3CC(=O)O)CS[C@H]12 [Example 1]
> 250 µg/mL: MIC (Enterobacter cloacae [2]; read-out: Minimum Inhibitory Concentration, Enterobacter cloacae strain 1, B, Inoculum of 10^6 organisms) | MIC (Enterobacter cloacae [2]; read-out: Minimum Inhibitory Concentration, Enterobacter cloacae strain 2, B, Inoculum of 10^6 organisms) | MIC (Enterobacter cloacae [2]; read-out: Minimum Inhibitory Concentration, Enterobacter cloacae strain 3, B, Inoculum of 10^6 organisms) | MIC (Enterobacter cloacae [2]; read-out: Minimum Inhibitory Concentration, Enterobacter cloacae strain 4, B, Inoculum of 10^6 organisms) | MIC (Enterobacter aerogenes; B, Inoculum of 10^6 organisms)
0.5 µg/mL: MIC (Klebsiella pneumoniae [1]; read-out: Minimum Inhibitory Concentration, Klebsiella pneumoniae strain 1, A, Inoculum of 10^2 organisms) | MIC (Klebsiella pneumoniae [1]; read-out: Minimum Inhibitory Concentration, Klebsiella pneumoniae strain 3, A, Inoculum of 10^2 organisms) | MIC (Klebsiella pneumoniae [1]; read-out: Minimum Inhibitory Concentration, Klebsiella pneumoniae strain 4, A, Inoculum of 10^2 organisms) | MIC (Klebsiella pneumoniae [1]; read-out: Minimum Inhibitory Concentration, Klebsiella pneumoniae strain 5, A, Inoculum of 10^2 organisms) | MIC (Escherichia coli; read-out: Minimum Inhibitory Concentration, Escherichia coli strain 1, A, Inoculum of 10^2 organisms) | MIC (Escherichia coli; read-out: Minimum Inhibitory Concentration, Escherichia coli strain 4, A, Inoculum of 10^2 organisms) | MIC (Escherichia coli; read-out: Minimum Inhibitory Concentration, Escherichia coli strain 6, A, Inoculum of 10^2 organisms) | MIC (Proteus vulgaris; Proteus vulgaris strain 1) | MBC (Proteus vulgaris; [9]) | MIC (Proteus vulgaris; [9]) | MIC (Proteus vulgaris; [10]) | MIC (Proteus mirabilis [5]; [11]) | MBC (Proteus mirabilis [5]; [12]) | MIC (Proteus mirabilis [5]; [12]) | MBC (Proteus mirabilis [5]; [13]) | MIC (Proteus mirabilis [5]; [13]) | MBC (Proteus mirabilis [5]; [14]) | MBC (Proteus mirabilis [5]; [15]) | MIC (Proteus mirabilis [5]; [15]) | MBC (Klebsiella pneumoniae [6]; [19]) | MIC (Klebsiella pneumoniae [6]; [19]) | MBC (Klebsiella pneumoniae [6]; [20]) | MIC (Klebsiella pneumoniae [6]; [20]) | MIC (Klebsiella pneumoniae [6]; [21]) | MIC (Proteus mirabilis [8]; read-out: Minimum Inhibitory Concentration, Proteus mirabilis strain 1, A, Inoculum of 10^2 organisms) | MIC (Proteus mirabilis [8]; read-out: Minimum Inhibitory Concentration, Proteus mirabilis strain 2, A, Inoculum of 10^2 organisms) | MIC (Proteus mirabilis [8]; read-out: Minimum Inhibitory Concentration, Proteus mirabilis strain 3, A, Inoculum of 10^2 organisms) | MIC (Proteus mirabilis [8]; read-out: Minimum Inhibitory Concentration, Proteus mirabilis strain 4, A, Inoculum of 10^2 organisms) | MIC (Proteus mirabilis [8]; read-out: Minimum Inhibitory Concentration, Proteus mirabilis strain 5, A, Inoculum of 10^2 organisms)
about equally active: relative activity against Haemophilus influenzae (Haemophilus influenzae)
250 µg/mL: MIC (Enterobacter cloacae [2]; read-out: Minimum Inhibitory Concentration, Enterobacter cloacae strain 5, B, Inoculum of 10^6 organisms)
0.13 µg/mL: MIC (Edwardsiella tarda)
100 µg/mL: MIC (Bacteroides Fragilis)
8 µg/mL: MIC (Enterobacter cloacae [2]; read-out: Minimum Inhibitory Concentration, Enterobacter cloacae strain 5, A, Inoculum of 10^2 organisms)
0.25 µg/mL: MIC (Klebsiella pneumoniae [1]; read-out: Minimum Inhibitory Concentration, Klebsiella pneumoniae strain 2, A, Inoculum of 10^2 organisms) | MIC (Klebsiella pneumoniae [1]; read-out: Minimum Inhibitory Concentration, Klebsiella pneumoniae strain 6, A, Inoculum of 10^2 organisms) | MIC (Escherichia coli; read-out: Minimum Inhibitory Concentration, Escherichia coli strain 3, A, Inoculum of 10^2 organisms) | MIC (Escherichia coli; read-out: Minimum Inhibitory Concentration, Escherichia coli strain 7, A, Inoculum of 10^2 organisms) | MIC (Proteus mirabilis [5]; [14]) | MBC (Klebsiella pneumoniae [6]; [16]) | MIC (Klebsiella pneumoniae [6]; [16]) | MBC (Klebsiella pneumoniae [6]; [17]) | MIC (Klebsiella pneumoniae [6]; [17]) | MBC (Klebsiella pneumoniae [6]; [18]) | MIC (Klebsiella pneumoniae [6]; [18]) | MIC (Pasteurella multocida)
125 µg/mL: MIC [3]
4 µg/mL: MIC (Klebsiella pneumoniae [1]; read-out: Minimum Inhibitory Concentration, Klebsiella pneumoniae strain 3, B, Inoculum of 10^6 organisms) | MIC (Klebsiella pneumoniae [1]; read-out: Minimum Inhibitory Concentration, Klebsiella pneumoniae strain 4, B, Inoculum of 10^6 organisms) | MIC (Klebsiella pneumoniae [1]; read-out: Minimum Inhibitory Concentration, Klebsiella pneumoniae strain 6, B, Inoculum of 10^6 organisms) | MIC (Escherichia coli; read-out: Minimum Inhibitory Concentration, Escherichia coli strain 2, A, Inoculum of 10^2 organisms) | MIC (Proteus mirabilis [8]; read-out: Minimum Inhibitory Concentration, Proteus mirabilis strain 2, B, Inoculum of 10^6 organisms) | MIC (Proteus mirabilis [8]; read-out: Minimum Inhibitory Concentration, Proteus mirabilis strain 5, B, Inoculum of 10^6 organisms)
slightly: effect of cell concentration on growth inhibitory activity (Staphylococcus Aureus; penicillinase-producing strains)
1.6: MICB /MICA (Staphylococcus Aureus; Lacking penicillinase, 3 strains)
65%: dose excreted at 24 h [7]
32 µg/mL: MIC (Escherichia coli; read-out: Minimum Inhibitory Concentration, Escherichia coli strain 2, B, Inoculum of 10^6 organisms)
1 µg/mL: MIC (Klebsiella pneumoniae [1]; read-out: Minimum Inhibitory Concentration, Klebsiella pneumoniae strain 1, B, Inoculum of 10^6 organisms) | MIC (Enterobacter cloacae [2]; read-out: Minimum Inhibitory Concentration, Enterobacter cloacae strain 1, A, Inoculum of 10^2 organisms) | MIC (Enterobacter cloacae [2]; read-out: Minimum Inhibitory Concentration, Enterobacter cloacae strain 2, A, Inoculum of 10^2 organisms) | MIC (Enterobacter aerogenes; A, Inoculum of 10^2 organisms) | MIC (Escherichia coli; read-out: Minimum Inhibitory Concentration, Escherichia coli strain 3, B, Inoculum of 10^6 organisms) | MIC (Escherichia coli; read-out: Minimum Inhibitory Concentration, Escherichia coli strain 5, A, Inoculum of 10^2 organisms) | MBC (Proteus vulgaris; Proteus vulgaris, Proteus vulgaris strain 1) | MBC (Proteus vulgaris; [10]) | MBC (Proteus mirabilis [5]; [11]) | MBC (Klebsiella pneumoniae [6]; [21])
alone was effective: efficacy against infections with Enterobacter cloacae (Enterobacter cloacae [4])
3.8 µg/mL: MIC (Staphylococcus Aureus; Penicillinase producer, 26 strains, A, Inoculum of 10^2 organisms, geometric means)
2 µg/mL: MIC (Klebsiella pneumoniae [1]; read-out: Minimum Inhibitory Concentration, Klebsiella pneumoniae strain 2, B, Inoculum of 10^6 organisms) | MIC (Klebsiella pneumoniae [1]; read-out: Minimum Inhibitory Concentration, Klebsiella pneumoniae strain 5, B, Inoculum of 10^6 organisms) | MIC (Enterobacter cloacae [2]; read-out: Minimum Inhibitory Concentration, Enterobacter cloacae strain 3, A, Inoculum of 10^2 organisms) | MIC (Enterobacter cloacae [2]; read-out: Minimum Inhibitory Concentration, Enterobacter cloacae strain 4, A, Inoculum of 10^2 organisms) | MIC (Escherichia coli; read-out: Minimum Inhibitory Concentration, Escherichia coli strain 1, B, Inoculum of 10^6 organisms) | MIC (Escherichia coli; read-out: Minimum Inhibitory Concentration, Escherichia coli strain 4, B, Inoculum of 10^6 organisms) | MIC (Escherichia coli; read-out: Minimum Inhibitory Concentration, Escherichia coli strain 5, B, Inoculum of 10^6 organisms) | MIC (Escherichia coli; read-out: Minimum Inhibitory Concentration, Escherichia coli strain 6, B, Inoculum of 10^6 organisms) | MIC (Escherichia coli; read-out: Minimum Inhibitory Concentration, Escherichia coli strain 7, B, Inoculum of 10^6 organisms) | MIC (Proteus mirabilis [8]; read-out: Minimum Inhibitory Concentration, Proteus mirabilis strain 1, B, Inoculum of 10^6 organisms) | MIC (Proteus mirabilis [8]; read-out: Minimum Inhibitory Concentration, Proteus mirabilis strain 3, B, Inoculum of 10^6 organisms) | MIC (Proteus mirabilis [8]; read-out: Minimum Inhibitory Concentration, Proteus mirabilis strain 4, B, Inoculum of 10^6 organisms)
1.5: MICB /MICA (Staphylococcus Aureus; Penicillinase producer, 26 strains)
1.6 µg/mL: MIC (Staphylococcus Aureus)
2.5 µg/mL: MIC (Staphylococcus Aureus; Lacking penicillinase, 3 strains, B, inoculum of 10^6 organisms, geometric means)
5.7 µg/mL: MIC (Staphylococcus Aureus; Penicillinase producer, 26 strains, B, inoculum of 10^6 organisms, geometric means)
